Values quoted from earlier work in patent publication US20240299293A1 (priority 2020, published 2024).

Test system: human coronaviruses, including CoV-229E and SARS-COV, and animal coronaviruses
Conditions: for elimination of coronaviruses: hexachlorophene, 2% glutaraldehyde, 1% povidone-iodine, benzalkonium chloride, chlorhexidine

Molecule: benzalkonium chloride
- elimination of coronaviruses: only if 70% ethanol is present in the solution

Molecule: OCl [sodium hypochlorite]
- susceptibility of coronaviruses (6% sodium hypochlorite solutions): variable

Molecule: [H]/N=C(\N/C(=N/[H])NCCCCCCNC(=N)NC(=N)Nc1ccc(Cl)cc1)Nc1ccc(Cl)cc1 [chlorhexidine]
- elimination of coronaviruses: only if 70% ethanol is present in the solution

Molecule: povidone-iodine
- elimination of coronaviruses: satisfactory elimination rates

Molecule: CCO [ethanol]
- reduction of viability (70% ethanol, viruses in suspension and dried on surfaces, within seconds): greater than 3 log

Molecule: O=CCCCC=O [glutaraldehyde]
- elimination of coronaviruses: satisfactory elimination rates

Molecule: Oc1c(Cl)cc(Cl)c(Cl)c1Cc1c(O)c(Cl)cc(Cl)c1Cl [hexachlorophene]
- elimination of coronaviruses: satisfactory elimination rates
